Target: T1, human PAH with the R408W mutation (Homo sapiens, UniProt P00439, R408W)
T1 construct: expressed in transfected cells
T1 sequence (P00439 1-452 R408W): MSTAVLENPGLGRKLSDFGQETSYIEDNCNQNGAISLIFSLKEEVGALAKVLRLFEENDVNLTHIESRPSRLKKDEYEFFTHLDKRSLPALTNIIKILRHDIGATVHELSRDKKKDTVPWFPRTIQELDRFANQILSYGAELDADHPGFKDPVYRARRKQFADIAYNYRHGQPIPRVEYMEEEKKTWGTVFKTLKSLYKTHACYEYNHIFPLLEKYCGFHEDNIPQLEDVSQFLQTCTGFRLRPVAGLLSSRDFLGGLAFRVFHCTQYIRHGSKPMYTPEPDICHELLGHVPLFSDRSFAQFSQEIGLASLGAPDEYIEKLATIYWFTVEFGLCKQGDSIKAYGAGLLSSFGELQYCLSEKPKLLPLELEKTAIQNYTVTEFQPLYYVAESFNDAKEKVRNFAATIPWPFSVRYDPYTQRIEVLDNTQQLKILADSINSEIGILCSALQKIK
Experiment: Cell Based Phenylalanine Flux Assay
Set-up: scale not given here
Settings: A375 cells expressing human R408W PAH; 24 hrs with compound; 13C-Tyrosine by LC-MS; average where tested multiple times

| AC50 | Structure (SMILES) |
| --- | --- |
| E, E | O=C(c1oc(-c2ccccn2)nc1C(F)(F)F)N1CCc2[nH]cnc2[C@@H]1c1nc2ccccc2s1 (single isomer, unassigned) |
| E, E | Cn1cc(-c2nc(C(F)(F)F)c(C(=O)N3CCc4[nH]cnc4[C@@H]3c3nc4ccccc4s3)o2)cn1 (single isomer, unassigned) |
| E, E | COCc1ccc2c(C(=O)N3CCc4[nH]cnc4[C@@H]3c3nc4ccccc4s3)c(C(F)F)nn2c1 (single isomer, unassigned) |

| Structure (SMILES) | AC50 |
| --- | --- |
| O=C(c1c(C(F)(F)F)nn2ccccc12)N1CCc2[nH]cnc2[C@H]1c1nc2ccccc2s1 (single isomer, unassigned) | E, E |
| NC(=O)c1nc(-c2ccccn2)oc1C(=O)N1CCc2[nH]cnc2[C@H]1c1nc2ccccc2s1 (single isomer, unassigned) | E, E |

Same assay, conditions: A375 cells expressing human R408W PAH; 24 hrs with compound; 13C-Tyrosine by LC-MS; average where tested multiple times; read-out: AC50

| AC50 [µM] | Structure (SMILES) |
| --- | --- |
| 1 to 5 | O=C(CCc1nccs1)N1CCc2[nH]cnc2C1c1nc2ccc(Br)cc2s1 (stereo not drawn) |
| 1 to 5 | Nc1cnc(N2CCc3[nH]cnc3C2c2nc3ccccc3s2)nc1 (stereo not drawn) |
| 0.5 to 1 | O=C(c1cnc(C2CCC(F)(F)CC2)s1)N1CCc2[nH]cnc2C1c1nc2ccccc2s1 (stereo not drawn) |
| 1 to 5 | O=C(c1oc(-c2ccccn2)nc1-c1ccccc1)N1CCc2[nH]cnc2C1c1nc2ccccc2s1 (stereo not drawn) |
| > 5 | Cn1ncc(C(=O)N2CCc3[nH]cnc3C2c2nc3c(F)cccc3s2)c1N (stereo not drawn) |
| 1 to 5 | O=C(c1cnco1)N1CCc2[nH]cnc2C1c1nc2c(F)cccc2s1 (stereo not drawn) |
| > 5 | CC1CN(C(=O)c2nnc(C(C)(C)O)o2)C(c2nc3ccccc3s2)c2nc[nH]c21 (stereo not drawn) [listing 1 of 4 here] |
| > 5 | Cc1nc(C(C)(C)O)oc1C(=O)N1CC(C)c2[nH]cnc2C1c1nc2c(F)cccc2s1 (stereo not drawn) [listing 1 of 4 here] |
| 1 to 5 | CC1CN(C(=O)c2cnc(N3CCOCC3)o2)C(c2nc3ccccc3s2)c2nc[nH]c21 (stereo not drawn) [listing 1 of 4 here] |
| > 5 | CC1CN(C(=O)c2nnc(C(C)(C)O)o2)C(c2nc3ccccc3s2)c2nc[nH]c21 (stereo not drawn) [listing 2 of 4 here] |
| > 5 | Cc1nc(C(C)(C)O)oc1C(=O)N1CC(C)c2[nH]cnc2C1c1nc2c(F)cccc2s1 (stereo not drawn) [listing 2 of 4 here] |
| > 5 | CC1CN(C(=O)c2cnc(N3CCOCC3)o2)C(c2nc3ccccc3s2)c2nc[nH]c21 (stereo not drawn) [listing 2 of 4 here] |
| 1 to 5 | COCCc1ncc(C(=O)N2CC(C)c3[nH]cnc3C2c2nc3ccccc3s2)o1 (stereo not drawn) |
| 1 to 5 | CC1CN(C(=O)c2nnc(C(C)(C)O)o2)C(c2nc3ccccc3s2)c2nc[nH]c21 (stereo not drawn) [listing 3 of 4 here] |
| 1 to 5 | Cc1nc(C(C)(C)O)oc1C(=O)N1CC(C)c2[nH]cnc2C1c1nc2c(F)cccc2s1 (stereo not drawn) [listing 3 of 4 here] |
| 1 to 5 | CC1CN(C(=O)c2cnc(N3CCOCC3)o2)C(c2nc3ccccc3s2)c2nc[nH]c21 (stereo not drawn) [listing 3 of 4 here] |
| > 5 | CC1CN(C(=O)c2cnc(CN(C)C)o2)C(c2nc3ccccc3s2)c2nc[nH]c21 (stereo not drawn) |
| 1 to 5 | CC1CN(C(=O)c2nnc(C(C)(C)O)o2)C(c2nc3ccccc3s2)c2nc[nH]c21 (stereo not drawn) [listing 4 of 4 here] |
| 1 to 5 | Cc1nc(C(C)(C)O)oc1C(=O)N1CC(C)c2[nH]cnc2C1c1nc2c(F)cccc2s1 (stereo not drawn) [listing 4 of 4 here] |
| 1 to 5 | CC1CN(C(=O)c2cnc(N3CCOCC3)o2)C(c2nc3ccccc3s2)c2nc[nH]c21 (stereo not drawn) [listing 4 of 4 here] |
| > 5 | O=C(Cc1nccs1)N1CCc2[nH]cnc2[C@@H]1c1nc2ccc(Br)cc2[nH]1 (single isomer, unassigned) |
| > 5 | O=C(c1nccs1)N1CCc2[nH]cnc2[C@@H]1c1nc2ccc(Cl)cc2[nH]1 (single isomer, unassigned) |
| 1 to 5 | O=C(CCc1nccs1)N1CCc2[nH]cnc2[C@H]1c1nc2cccc(F)c2[nH]1 (single isomer, unassigned) |
| 1 to 5 | O=C(c1nncs1)N1CCc2[nH]cnc2[C@H]1c1nc2ccccc2[nH]1 (single isomer, unassigned) |
| 1 to 5 | Cc1nnc(C(=O)N2CCc3[nH]cnc3[C@H]2c2nc3cc(Br)ccc3[nH]2)s1 (single isomer, unassigned) |
| 1 to 5 | O=C(c1nccs1)N1CCc2[nH]cnc2[C@H]1c1nc2ccc(F)cc2[nH]1 (single isomer, unassigned) |

Same assay, conditions: AC50, A375 cells expressing human R408W PAH; 24 hrs with compound; 13C-Tyrosine by LC-MS; average where tested multiple times

| AC50 [µM] | Structure (SMILES) |
| --- | --- |
| > 5 | Cc1nnc(C(=O)N2CCc3[nH]cnc3C2c2nc3ccc(Cl)cc3[nH]2)s1 (stereo not drawn) [listing 1 of 2 here] |
| 1 to 5 | Cc1nnc(C(=O)N2CCc3[nH]cnc3C2c2nc3ccc(Cl)cc3[nH]2)s1 (stereo not drawn) [listing 2 of 2 here] |

From patent publication US20250171438A1 (Agios Pharmaceuticals, Inc., priority 2022, published 2025)
